According to patent US7579469B2, “Glucocorticoid mimetics, methods of making them, pharmaceutical compositions, and uses thereof” (Boehringer Ingelheim Pharmaceuticals, Inc., priority 2003, dated 2009):

Key:
[1] = target: T1, human glucocorticoid receptor (GR) complex (Homo sapiens, UniProt P04150); experiment: Glucocorticoid receptor competitive binding assay (fluorescence polarization); conditions: competition with TAMRA-labeled dexamethasone
T1 construct: made in house; host or cells: insect expression system (baculovirus lysate)
T1 sequence (P04150 1-777): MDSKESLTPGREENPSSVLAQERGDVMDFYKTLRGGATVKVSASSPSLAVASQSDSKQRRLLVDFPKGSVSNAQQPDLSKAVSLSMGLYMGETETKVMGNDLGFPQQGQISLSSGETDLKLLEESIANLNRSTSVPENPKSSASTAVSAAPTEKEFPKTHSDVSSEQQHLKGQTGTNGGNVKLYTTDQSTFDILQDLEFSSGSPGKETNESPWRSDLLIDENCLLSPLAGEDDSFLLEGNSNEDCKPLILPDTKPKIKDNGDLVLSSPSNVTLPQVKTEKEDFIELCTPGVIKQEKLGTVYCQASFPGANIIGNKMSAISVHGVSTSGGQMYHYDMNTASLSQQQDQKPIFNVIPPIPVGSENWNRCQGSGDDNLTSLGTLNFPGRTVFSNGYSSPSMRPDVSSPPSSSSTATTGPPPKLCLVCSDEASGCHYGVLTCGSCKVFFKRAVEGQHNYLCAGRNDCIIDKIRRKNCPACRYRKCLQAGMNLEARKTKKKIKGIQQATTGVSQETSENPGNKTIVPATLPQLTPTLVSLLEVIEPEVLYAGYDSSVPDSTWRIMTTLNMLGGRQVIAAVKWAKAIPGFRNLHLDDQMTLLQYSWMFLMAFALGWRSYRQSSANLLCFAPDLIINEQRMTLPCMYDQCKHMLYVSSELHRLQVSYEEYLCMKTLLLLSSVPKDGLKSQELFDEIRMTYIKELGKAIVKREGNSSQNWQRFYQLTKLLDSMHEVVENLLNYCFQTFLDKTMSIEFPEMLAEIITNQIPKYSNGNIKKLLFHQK
How it was run: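 Fluorescence polarization competition against TAMRA-labelled dexamethasone (50 μL of 15 nM added) for human GR complex from baculovirus insect-cell lysate, diluted 1:170, in TES/KCl/molybdate buffer, pH 7.4.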

[2] = tested on: Osteocalcin Production from Osteoblast Cell Line MG-63; experiment: Inhibition of osteocalcin production from osteoblast cell line MG-63; format: cell-based, human; conditions: MG-63 cells, Vitamin D 10 nM, 48 hours, osteocalcin ELISA
Description: Representative compounds of the invention have been tested and have shown activity as modulators of the glucocorticoid receptor function in one or more of the above assays. […] 7. Inhibition of Osteocalcin Production from Osteoblast Cell Line MG-63
Human osteosarcoma MG-63 cells (ATCC, Cat. No. CRL-1427) are plated on 96 well plates at 20,000 cells per well the day before use in 200 μL media of 99% D-MEM/F-12 (Gibco-Invitrogen, Cat. No. 11039-021), supplemented with 1% penicillin and streptomycin (Gibco-Invitrogen, Cat. No. 15140-122), 10 μg/mL Vitamin C (Sigma, Cat. No. A4544), and 1% charcoal filtered Fetal Bovine Serum (HyClone, Cat. No. SH30068.02). The next day, wells are replaced with fresh media. Cells are treated with Vitamin D (Sigma, Cat. No. D1530) to a final concentration of 10 nM, and with the test compounds in concentrations of 10^−6 M to 10^−9 M, in a total volume of 200 μL per well. Samples are done in duplicates. […] Positive control wells receive Vitamin D only, without compounds, and represent maximum (100%) amount of osteocalcin production. Plates are incubated at 37° C. incubator for 48 hours and supernatants are harvested at the end of incubation. Amounts of osteocalcin in the supernatants are determined by the Glype osteocalcin ELISA kit (Zymed, Cat. No. 99-0054) according to manufacture's protocol. Inhibition of osteocalcin by test compounds is expressed in percentage relative to positive controls. IC50 values of the test compounds are derived by non-lineal curve fitting.

SMILES	activity in the GR binding assay [1]	melting point	inhibit the vitamin D stimulated production of osteocalcin [2]
CC(C)(CC(O)(Cn1ccc(=O)c2ccc(F)cc21)C(F)(F)F)c1cc(F)ccc1O (stereo not shown) [7-Fluoro-1-[4-(5-fluoro-2-hydroxyphenyl)-2-hydroxy-4-methyl-2-trifluoromethylpentyl]-1H-quinolin-4-one]	potent activity		inhibit
CC(C)(CC(O)(Cn1ccc(=O)c2ccccc21)C(F)(F)F)c1cc(S(C)(=O)=O)cc2c1OCC2 (stereo not shown) [1-[2-Hydroxy-4-(5-methanesulfonyl-2,3-dihydrobenzofuran-7-yl)-4-methyl-2-trifluoromethylpentyl]-1H-quinolin-4-one]	potent activity		inhibit
CC(C)(CC(O)(Cn1ccc(=O)c2ccccc21)C(F)(F)F)c1cc(Br)cc2c1OCC2 (stereo not shown) [1-[4-(5-Bromo-2,3-dihydrobenzofuran-7-yl)-2-hydroxy-4-methyl-2-trifluoromethylpentyl]-1H-quinolin-4-one]	potent activity		inhibit
CC(C)(CC(O)(Cn1ccc(=O)c2ccccc21)C(F)(F)F)c1cc(F)ccc1O (stereo not shown) [1-[4-(5-Fluoro-2-hydroxyphenyl)-2-hydroxy-4-methyl-2-trifluoromethylpentyl]-1H-quinolin-4-one]	potent activity		inhibit
CC(C)(CC(O)(Cn1ccc(=O)c2ccccc21)C(F)(F)F)c1cccc(-c2ccccc2)c1 (stereo not shown) [1-(4-Biphenyl-3-yl-2-hydroxy-4-methyl-2-trifluoromethylpentyl)-1H-quinolin-4-one]			inhibit

More lines, main results first:

activity in the GR binding assay [1]	melting point	SMILES	inhibit the vitamin D stimulated production of osteocalcin [2]
	150 to 155 °C	CC(C)(CC(O)(Cn1ccc(=O)c2ccccc21)C(F)(F)F)c1cc(F)ccc1OC(F)F (stereo not shown) [Example 28, 1-[4-(2-difluoromethoxy-5-fluorophenyl)-2-hydroxy-4-methyl-2-trifluoromethylpentyl]-1H-quinolin-4-one]	
	141 to 144 °C	COc1ccc(F)cc1C(C)(C)CC(O)(Cn1[nH]c(=O)c2ccccc21)C(F)(F)F (stereo not shown) [Example 23, 1-[4-(5-fluoro-2-methoxyphenyl)-2-hydroxy-4-methyl-2-trifluoromethylpentyl]-1,2-dihydroindazol-3-one]	
	195 to 196 °C	CCOc1ccc(F)cc1C(C)(C)CC(O)(Cn1ccc(=O)c2ccccc21)C(F)(F)F (stereo not shown) [Example 27, 1-[4-(2-ethoxy-5-fluorophenyl)-2-hydroxy-4-methyl-2-trifluoromethylpentyl]-1H-quinolin-4-one]	
	> 225 °C	COc1ccc(F)cc1C(C)(C)CC(O)(Cn1cc(C)c(=O)c2ccccc21)C(F)(F)F (stereo not shown) [Example 26, 1-[4-(5-fluoro-2-methoxyphenyl)-2-hydroxy-4-methyl-2-trifluoromethylpentyl]-3-methyl-1H-quinolin-4-one]	
